Assay results: patent US20120136050A1, “USE OF A MELATONIN AGONIST FOR THE TREATMENT OF SLEEP DISORDERS INCLUDING PRIMARY INSOMNIA” (VANDA PHARMACEUTICALS INC., priority 2009, published 2012)
“Also recorded” adds a separate entry of the source.

Legend:
[1] = Solubility in solvents and water; type: physicochemical
[2] = test system: patients with chronic primary insomnia; assay: Phase III placebo-controlled 4-week trial in chronic primary insomnia (PSG); type: in vivo, human; conditions: for fell asleep faster than placebo group (PSG): first night of treatment, p<0.001
Method: A phase III, multi-center, placebo-controlled, 4-week trial evaluated 322 patients with chronic primary insomnia. Patients were randomized to receive either 20 mg or 50 mg of Compound A or placebo over the course of four weeks. The primary endpoint consisted of the evaluation of the immediate and short-term (average of Nights 1 and 8) ability of Compound A to improve sleep onset as measured by Latency to Persistent Sleep (LPS) through polysomnography (PSG). Secondary endpoints evaluated Compound A's ability to maintain improvements on sleep onset after long-term (average of Nights 22 and 29) use of the compound as well as measures of sleep duration (Total Sleep Time, TST) and sleep maintenance (Wake After Sleep Onset, WASO). Patients were eligible for the study if symptoms of insomnia were chronic and LPS was greater than 30 minutes.

[3] = Particle size by laser diffraction (Malvern Mastersizer); type: physicochemical
Method: Particle size will also affect the dose selected. At larger particle sizes, i.e., D50 is greater than about 100 m, e.g., about 100 m to about 200 m oral doses at the higher end, i.e., up to about 100 mg are effective, whereas at smaller particle sizes, i.e., D50 is less than about 100 m, e.g., about 20 m to about 50 m, lower doses, i.e., less than about 100 mg, are useful, e.g., about 10 mg to about 80 mg and about 20 mg to about 50 mg. (Particle size measurements supporting the above were made laser diffraction using a Malvern Mastersizer. The D50 (D10, D90, D100) value means that 50% (10%, 90%, 100%) of the particles by weight are of the indicated diameter or smaller.) In one embodiment of the invention, the above doses are administered in immediate release form, i.e., a non-controlled release formulation.

[4] = Plasma exposure after oral administration (Cmax, AUC); type: in vivo, human
[5] = test system: elderly patients with primary insomnia; assay: 28-day Phase II study in elderly patients with primary insomnia; type: in vivo, human
Method: (§1) A 28-day Phase II study was also conducted to investigate the effects of Compound A in elderly patients with primary insomnia. […] While patients with the lowest melatonin levels ([…]) may have benefited from Compound A treatment more than placebo, the design of this study made it difficult to interpret the effects of Compound A on the sleep-wake cycle.

healthy volunteers = assay: Previous Phase I single and multiple ascending dose studies, safety and tolerability; type: in vivo
Method: as §1
The oral doses selected were based on safety and efficacy data obtained from previous Compound A pre-clinical and clinical trials. […] Though not optimally designed to assess the chronobiotic potential of Compound A, clinical trial CN116-002 measured the effects Compound A on the circadian sleep-wake cycle. […] The doses selected for the study (10 mg, 20 mg, 50 mg, and 100 mg) were within the expected dose range for efficacy. The safety of the selected doses for this study is supported by previous clinical studies. […] The highest dose in the study, 100 mg, is well within the safety margin established in both Phase I single and multiple ascending dose trials and in a Phase II study.

[6] = 20 mg, Nights 1 and 8 vs baseline, p<0.001 vs placebo
[7] = 20 mg, Nights 22 and 29 vs baseline, nss
[8] = 20 mg, Nights 22 and 29 vs baseline, p<0.001 vs placebo
[9] = 50 mg, Nights 1 and 8 vs baseline, p<0.001 vs placebo
[10] = 50 mg, Nights 22 and 29 vs baseline, nss
[11] = material used in Example 1 study
[12] = material used in Example 2 study, material used in sleep latency study

CCC(=O)NC[C@@H]1C[C@H]1c1cccc2c1CCO2 [Compound A, N-[[(1R,2R)-2-(2,3-dihydro-1-benzofuran-4-yl)cycloproply]methyl]propanamide]
dependence of aqueous solubility on pH [1]: practically unaffected by pH
solubility in organic solvents ([1]; 95% ethanol, methanol, acetonitrile, ethyl acetate, isopropanol, polyethylene glycols (PEG-300 and PEG-400)): very soluble or freely soluble
native pH of a saturated solution in water ([1]; saturated solution in water): 8.5
solubility in water ([1]; water): only slightly soluble
tolerability and safety profile ([2]; 20 mg or 50 mg over four weeks): well-tolerated and exhibited a safety profile generally similar to placebo
mean WASO improved by ([2]; 20 mg, Nights 1 and 8 vs baseline, nss): 12.2 min
mean LPS improved by [2, 6]: 45.0 min
mean TST during the first third of the night improved by [2, 6]: 40.9 min
mean WASO during the first third of the night improved by ([2]; 20 mg, Nights 1 and 8 vs baseline, p<0.01 vs placebo): 2.3 min
mean TST improved by ([2]; 20 mg, Nights 1 and 8 vs baseline, p=0.089 vs placebo): 51.4 min
mean WASO during the first third of the night improved by [2, 7]: 3.1 min
mean WASO improved by [2, 7]: 17.7 min
mean LPS improved by [2, 8]: 49.4 min
mean TST during the first third of the night improved by [2, 8]: 45.2 min
mean TST improved by ([2]; 20 mg, Nights 22 and 29 vs baseline, p=0.057 vs placebo): 60.3 min
fell asleep faster than placebo group (PSG) ([2]; 20 mg): 22.9 min
mean WASO improved by ([2]; 50 mg, Nights 1 and 8 vs baseline, nss): 14.1 min
mean LPS improved by [2, 9]: 46.4 min
mean TST during the first third of the night improved by [2, 9]: 39.4 min
mean WASO during the first third of the night improved by ([2]; 50 mg, Nights 1 and 8 vs baseline, p<0.05 vs placebo): 1.8 min
mean TST improved by ([2]; 50 mg, Nights 1 and 8 vs baseline, p=0.074 vs placebo): 52.0 min
mean WASO during the first third of the night improved by [2, 10]: 1.8 min
mean WASO improved by [2, 10]: 10.2 min
mean TST improved by ([2]; 50 mg, Nights 22 and 29 vs baseline, nss vs placebo): 48.6 min
mean TST during the first third of the night improved by ([2]; 50 mg, Nights 22 and 29 vs baseline, p<0.01 vs placebo): 40.1 min
mean LPS improved by ([2]; 50 mg, Nights 22 and 29 vs baseline, p=0.016 vs placebo): 45.1 min
fell asleep faster than placebo group (PSG) ([2]; 50 mg): 25.9 min
particle size D10 [3, 11]: 10 µm
particle size D50 [3, 11]: 115 µm
particle size D90 [3, 11]: 316 µm
particle size D100 [3, 11]: 631 µm
particle size D10 [3, 12]: 5 µm
particle size D50 [3, 12]: 25 µm
particle size D90 [3, 12]: 72 µm
particle size D100 [3, 12]: 316 µm
effect of covariates on exposure levels ([4]; age, weight, height, gender, creatinine clearance, or ALT baseline levels): not affected
AUC increase with dose ([4]; oral doses 10 to 100 mg): approximately proportional to dose
Cmax increase with dose ([4]; oral doses 10 to 100 mg): approximately proportional to the dose
number of nocturnal awakenings versus placebo [5]: did not differentiate from placebo
sleep latency versus placebo [5]: did not differentiate from placebo
safety and tolerability, multiple doses (healthy volunteers; doses up to 150 mg daily for 28 days, healthy subjects (b53 also elderly subjects with chronic insomnia)): well-tolerated; also recorded: safety and tolerability of Compound A at doses up to 150 mg has been demonstrated
safety and tolerability, single dose (healthy volunteers; healthy subjects, single oral dose of 1 mg to 300 mg): safe and well tolerated
